#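 How tested: cells in 96-well plates exposed to compound for 48 hours at five concentrations. TGI denotes the concentration required for complete inhibition of growth.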
# Columns and labels:
# Assay in all cases: NCI anticancer screen, dose series, 48 h
# [1] = system: 786-0 renal
# [2] = system: A549 NSCLC
# [3] = system: ACHN renal
# [4] = system: CAKI-1 renal
# [5] = system: CCRF-CEM leukemia
# [6] = system: COLO 205 colon
# [7] = system: DLD-1 colon
# [8] = system: DMS 114 small cell lung
# [9] = system: DMS 273 small cell lung
# [10] = system: EKVX NSCLC
# [11] = system: HCC-2998 colon
# [12] = system: HCT-15 colon
# [13] = system: HL-60(TB) leukemia
# [14] = system: HOP-18 NSCLC
# [15] = system: HOP-62 NSCLC
# [16] = system: HOP-92 NSCLC
# [17] = system: HT29 colon
# [18] = system: IGROV1 ovarian
# [19] = system: K-562 leukemia
# [20] = system: KM12 colon
# [21] = system: KM20L2 colon
# [22] = system: LOX IMVI melanoma
# [23] = system: LXFL 529 NSCLC
# [24] = system: M14 melanoma
# [25] = system: M19-MEL melanoma
# [26] = system: MALME-3M melanoma
# [27] = system: MOLT-4 leukemia
# [28] = system: NCI-H23 lung
# [29] = system: NCI-H460 lung
# [30] = system: NCI-H522 lung
# [31] = system: OVCAR-3 ovarian
# [32] = system: OVCAR-4 ovarian
# [33] = system: OVCAR-5 ovarian
# [34] = system: OVCAR-8 ovarian
# [35] = system: RPMI-8226 leukemia
# [36] = system: RXF 393 renal
# [37] = system: SF-268 CNS
# [38] = system: SF-295 CNS
# [39] = system: SF-539 CNS
# [40] = system: SK-MEL-2 melanoma
# [41] = system: SK-MEL-28 melanoma
# [42] = system: SK-MEL-5 melanoma
# [43] = system: SK-OV-3 ovarian
# [44] = system: SN12C renal
# [45] = system: SNB-19 CNS
# [46] = system: SNB-75 CNS
# [47] = system: SW-620 colon
# [48] = system: TK-10 renal
# [49] = system: U251 CNS
# [50] = system: UACC-257 melanoma
# [51] = system: UACC-62 melanoma
# [52] = system: UO-31 renal
# [53] = system: A498 renal
# [54] = system: HCT-116 colon
# [55] = system: NCI-H226 lung
# [56] = system: SNB-78 CNS
# [57] = system: SR leukemia
structure (smiles),measurement,setting,value
CC1(C=O)C(=O)CCC2(C)C3CC(=O)OC3CCC12 (configuration not stated),TGI,[1],> 100 µM
same,TGI,[2],> 100 µM
same,TGI,[3],> 100 µM
same,TGI,[4],> 100 µM
same,TGI,[5],> 100 µM
same,TGI,[6],> 100 µM
same,TGI,[7],> 100 µM
same,TGI,[8],> 100 µM
same,TGI,[9],> 100 µM
same,TGI,[10],> 100 µM
same,TGI,[11],> 100 µM
same,TGI,[12],> 100 µM
same,TGI,[13],> 100 µM
same,TGI,[14],> 100 µM
same,TGI,[15],> 100 µM
same,TGI,[16],> 100 µM
same,TGI,[17],> 100 µM
same,TGI,[18],> 100 µM
same,TGI,[19],> 100 µM
same,TGI,[20],> 100 µM
same,TGI,[21],> 100 µM
same,TGI,[22],> 100 µM
same,TGI,[23],> 100 µM
same,TGI,[24],> 100 µM
same,TGI,[25],> 100 µM
same,TGI,[26],> 100 µM
same,TGI,[27],> 100 µM
same,TGI,[28],> 100 µM
same,TGI,[29],> 100 µM
same,TGI,[30],> 100 µM
same,TGI,[31],> 100 µM
same,TGI,[32],> 100 µM
same,TGI,[33],> 100 µM
same,TGI,[34],> 100 µM
same,TGI,[35],> 100 µM
same,TGI,[36],> 100 µM
same,TGI,[37],> 100 µM
same,TGI,[38],> 100 µM
same,TGI,[39],> 100 µM
same,TGI,[40],> 100 µM
same,TGI,[41],> 100 µM
same,TGI,[42],> 100 µM
same,TGI,[43],> 100 µM
same,TGI,[44],> 100 µM
same,TGI,[45],> 100 µM
same,TGI,[46],> 100 µM
same,TGI,[47],> 100 µM
same,TGI,[48],> 100 µM
same,TGI,[49],> 100 µM
same,TGI,[50],> 100 µM
same,TGI,[51],> 100 µM
same,TGI,[52],> 100 µM
C/C(=C1/N=C(c2cc([N+](=O)[O-])ccc2Cl)N(c2ccc(Br)cc2)C1=O)c1cc2ccccc2oc1=O,TGI,[53],66.8 µM
same,TGI,[2],> 100 µM
same,TGI,[3],> 100 µM
same,TGI,[4],> 100 µM
same,TGI,[5],> 100 µM
same,TGI,[6],21.8 µM
same,TGI,[7],> 100 µM
same,TGI,[8],> 100 µM
same,TGI,[10],> 100 µM
same,TGI,[11],65.1 µM
same,TGI,[54],> 100 µM
same,TGI,[12],> 100 µM
same,TGI,[13],> 100 µM
same,TGI,[14],> 100 µM
same,TGI,[15],> 100 µM
same,TGI,[17],> 100 µM
same,TGI,[18],> 100 µM
same,TGI,[19],> 100 µM
same,TGI,[20],> 100 µM
same,TGI,[21],> 100 µM
same,TGI,[22],> 100 µM
same,TGI,[23],> 100 µM
same,TGI,[24],> 100 µM
same,TGI,[25],> 100 µM
same,TGI,[26],> 100 µM
same,TGI,[27],> 100 µM
same,TGI,[55],> 100 µM
same,TGI,[28],> 100 µM
same,TGI,[29],> 100 µM
same,TGI,[30],52.4 µM
same,TGI,[31],> 100 µM
same,TGI,[32],> 100 µM
same,TGI,[33],> 100 µM
same,TGI,[34],> 100 µM
same,TGI,[35],> 100 µM
same,TGI,[37],> 100 µM
same,TGI,[38],> 100 µM
same,TGI,[39],> 100 µM
same,TGI,[40],> 100 µM
same,TGI,[41],> 100 µM
same,TGI,[42],> 100 µM
same,TGI,[43],> 100 µM
same,TGI,[44],> 100 µM
same,TGI,[45],> 100 µM
same,TGI,[46],> 100 µM
same,TGI,[56],> 100 µM
same,TGI,[57],> 100 µM
same,TGI,[47],> 100 µM
same,TGI,[49],> 100 µM
same,TGI,[50],> 100 µM
same,TGI,[51],> 100 µM
same,TGI,[52],> 100 µM
CC/C=C/c1cc2c(c3[nH]ccc13)[C@@H](C)CC2C (some centres not stated) (tested in a mixture with another compound),TGI,[1],33.1 µM
same,TGI,[2],39.1 µM
same,TGI,[3],31.7 µM
same,TGI,[4],31.7 µM
same,TGI,[6],39.7 µM
same,TGI,[7],26.3 µM
same,TGI,[8],35.6 µM
same,TGI,[9],29.4 µM
same,TGI,[10],36 µM
same,TGI,[11],10 µM
same,TGI,[54],33.8 µM
same,TGI,[13],44.5 µM
same,TGI,[14],26.5 µM
same,TGI,[15],32.8 µM
same,TGI,[17],28.4 µM
same,TGI,[20],32.2 µM
same,TGI,[21],29.3 µM
same,TGI,[22],29.4 µM
same,TGI,[23],30 µM
same,TGI,[24],29.3 µM
same,TGI,[25],35.3 µM
same,TGI,[26],36 µM
same,TGI,[55],28.8 µM
same,TGI,[28],33.1 µM
same,TGI,[29],29.5 µM
same,TGI,[30],30.9 µM
same,TGI,[32],28.9 µM
same,TGI,[33],34.1 µM
same,TGI,[34],31.4 µM
same,TGI,[36],25.7 µM
same,TGI,[37],32 µM
same,TGI,[38],30.2 µM
same,TGI,[39],33.6 µM
same,TGI,[40],29.6 µM
same,TGI,[41],30.2 µM
same,TGI,[44],28.8 µM
same,TGI,[45],33.8 µM
same,TGI,[56],32.3 µM
same,TGI,[47],32.3 µM
same,TGI,[48],36.9 µM
same,TGI,[49],31.9 µM
same,TGI,[50],29.8 µM
same,TGI,[52],31 µM

# Source: PubChem BioAssay (NCI)
